Results on 5 compounds are retold here after paper PMC6278539, “Selective Inhibition of Human AKR1B10 by n-Humulone, Adhumulone and Cohumulone Isolated from Humulus lupulus Extract” (Molecules, 2018).

One may read the IC50 as the midpoint of a concentration-inhibition curve. By Ki is commonly meant a measure of affinity in units of concentration, obtained from inhibition or displacement.

Experiment [1] deals with T1, AKR1B10 (Homo sapiens, UniProt O60218).
T1 construct: 6xHis; made in house; host or cells: E. coli BL21 (DE3)
T1 sequence (O60218 whole entry): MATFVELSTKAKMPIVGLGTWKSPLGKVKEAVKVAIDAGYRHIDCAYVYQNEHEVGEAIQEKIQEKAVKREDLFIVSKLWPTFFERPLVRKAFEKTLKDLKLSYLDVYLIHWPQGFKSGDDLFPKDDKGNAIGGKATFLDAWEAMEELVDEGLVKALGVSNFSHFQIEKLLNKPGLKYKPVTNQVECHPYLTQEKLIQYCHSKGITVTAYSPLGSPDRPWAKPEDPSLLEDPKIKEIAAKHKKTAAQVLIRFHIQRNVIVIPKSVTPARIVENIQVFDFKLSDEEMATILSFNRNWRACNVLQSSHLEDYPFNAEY
The experiment is described as follows: AKR1B10 inhibition, DL-glyceraldehyde reduction (NADPH decrease at 340 nm). The format is biochemical. The following applies: for IC50 / Ki: AKR1B10, Glyceraldehyde [4.0 mM], mean ± SD; for Ki: read-out: Ki (Morrison); for Ratio AKR1A1/AKR1B10 / Ratio AKR1B1/AKR1B10: IC50-ratio, glyceraldehyde as substrate. The method, then:
(§1) The carbonyl-reducing enzymes AKR1A1, AKR1B1, AKR1B10 were prepared in an Escherichia coli expression system according to previously published methods: plasmids of AKR1A1 and AKR1B1 were friendly gifts from Prof. Dr. Vladimir Wsol and Dr. Nina Kassner; information about production and purification of AKR1B10 [19] has been published before (sequences of all obtained plasmids containing the specific inserts were verified by sequencing (MWG Eurofins)). The plasmids were then transformed in E. coli BL21 (DE3) cells. For overexpression of 6× His-tagged enzymes, a 400 mL culture (containing the appropriate antibiotic; plasmid dependent) was grown to optical density of 0.6 at 600 nm at 37 °C. Expression was induced by adding isopropyl-1-thio-galactopyranoside to the culture medium (final concentration of 1 mM). After 3 h, cells were harvested by centrifugation (6000× g, 15 min) and resuspended in 20 mL PBS-I buffer (20 mM Na2H2PO4, 500 mM NaCl, 10 mM imidazole, 10% v/v glycerol, pH 7.4). Cell disruption was performed by ultrasonication with cooling on ice to avoid heating. The sample was subsequently centrifuged at 100,000× g at 4 °C for 1 h. The obtained supernatants containing the respective enzymes were purified using Ni-affinity chromatography (ÄKTA-Purifier; Amersham Pharmacia, Uppsala, Sweden) using PBS-II buffer (20 mM Na2H2PO4, 500 mM NaCl, 500 mM imidazole, 10% v/v glycerol, pH 7.4). Purification progress was monitored by SDS-PAGE of the obtained fractions (not shown). Enzyme concentrations were determined using a Qubit 2.0 fluorometric quantitation system (Life Technologies, Carlsbad, CA, USA) according to the manufacturer’s instructions.
(§2) Catalytic properties were determined by measuring the decrease in absorbance at 340 nm (Cary 100 scan photometer, Varian, CA, USA). A reaction mixture without inhibitor consisted of different concentrations of DL-glyceraldehyde or farnesal, 200 μM NADPH, 0.1 M NaH2PO4 buffer (pH 7.4) and an appropriate amount of enzyme in a total assay volume of 0.8 mL. Final enzyme concentrations in the assay ranged from 222 nM (AKR1A1) to 899 nM (AKR1B10). KM values were obtained by fitting the kinetic data (mean ± SD from at least three experiments) to the Michaelis‒Menten model, as implemented in GraphPad Prism6 (GraphPad Software Inc., La Jolla, CA, USA).
(§3) For inhibition studies, stock solutions of inhibitors were prepared in H2O (iso-α-acid mixture) and DMSO (α-acid mixture and compounds 1–3 purified from the same mixture). […] When collecting data for dose–response curves initial velocities of DL-glyceraldehyde or farnesal reduction (substrate concentration at KM) in the presence of inhibitors were assayed as described above. The percentage of inhibition was calculated considering the activity in the absence of inhibitor to be 100%.
Initially, the half maximal inhibitory concentrations (IC50 values) were determined for each inhibitor in presence of each enzyme, using the shared substrate DL-glyceraldehyde (set to their specific KM; 3.6 mM, 50 μM and 4 mM for AKR1A1, AKR1B1 and AKR1B10, respectively) to assess specificity amongst the structurally similar members of the AKR-superfamily.
For IC50 determination, experimental data were normalised and fitted to a sigmoidal curve as implemented in GraphPad Prism6 (GraphPad Software Inc., La Jolla, CA, USA). Whenever tight-binding inhibition was observed, the inhibition constant Ki was determined by fitting inhibition data to the Morrison equation [43]. In order to verify the inhibitory potency, farnesal as an enzyme-specific physiological substrate for AKR1B10 (farnesal; KM = 5 µM) was used to determine inhibition parameters. Enzyme inhibition parameters were assayed as described above. The inhibition mechanism of each compound for AKR1B10 was analysed by plotting IC50-values at different substrate concentrations (at least five inhibitor and substrate concentrations). […]

The next experiment has as its target T2, AKR1B1 (Homo sapiens, UniProt P15121).
T2 construct: 6xHis; made in house; host or cells: E. coli BL21 (DE3)
The experiment is described as follows: AKR1B1 inhibition, DL-glyceraldehyde reduction (NADPH decrease at 340 nm). It is filed as biochemical. Particulars: AKR1B1, Glyceraldehyde [50 µM]. The method, then: as §1, with “The sample was subsequently centrifuged at 100,000× g at 4 °C for 1 h. The obtained supernatants containing the respective enzymes were purified using Ni-affinity chromatography (ÄKTA-Purifier; Amersham Pharmacia, Uppsala, Sweden) using PBS-II buffer (20 mM Na2H2PO4, 500 mM NaCl, 500 mM imidazole, 10% v/v glycerol, pH 7.4).” left out
(§4) Catalytic properties were determined by measuring the decrease in absorbance at 340 nm (Cary 100 scan photometer, Varian, CA, USA). […]
(§5) For inhibition studies, stock solutions of inhibitors were prepared in H2O (iso-α-acid mixture) and DMSO (α-acid mixture and compounds 1–3 purified from the same mixture). […] The percentage of inhibition was calculated considering the activity in the absence of inhibitor to be 100%. […]
For IC50 determination, experimental data were normalised and fitted to a sigmoidal curve as implemented in GraphPad Prism6 (GraphPad Software Inc., La Jolla, CA, USA). Whenever tight-binding inhibition was observed, the inhibition constant Ki was determined by fitting inhibition data to the Morrison equation [43]. […]

Experiment [2] addresses T1, AKR1B10. The experiment is described as follows: AKR1B10-mediated farnesal reduction inhibition. Particulars: for IC50 / Ki: AKR1B10, Farnesal [5 µM], mean ± SD; for Mode of inhibition: AKR1B10, farnesal reduction. It is filed as biochemical. The method, then:
as §1, §2, §3
For IC50 determination, experimental data were normalised and fitted to a sigmoidal curve as implemented in GraphPad Prism6 (GraphPad Software Inc., La Jolla, CA, USA). Whenever tight-binding inhibition was observed, the inhibition constant Ki was determined by fitting inhibition data to the Morrison equation [43]. In order to verify the inhibitory potency, farnesal as an enzyme-specific physiological substrate for AKR1B10 (farnesal; KM = 5 µM) was used to determine inhibition parameters. Enzyme inhibition parameters were assayed as described above. The inhibition mechanism of each compound for AKR1B10 was analysed by plotting IC50-values at different substrate concentrations (at least five inhibitor and substrate concentrations). All data obtained were plotted and analysed using GraphPad Prism6 (GraphPad Software Inc., La Jolla, CA, USA).

For the next experiment, the target named is T3, AKR1A1 (Homo sapiens, UniProt P14550).
T3 construct: 6xHis; made in house; host or cells: E. coli BL21 (DE3)
T3 sequence (P14550 1-325): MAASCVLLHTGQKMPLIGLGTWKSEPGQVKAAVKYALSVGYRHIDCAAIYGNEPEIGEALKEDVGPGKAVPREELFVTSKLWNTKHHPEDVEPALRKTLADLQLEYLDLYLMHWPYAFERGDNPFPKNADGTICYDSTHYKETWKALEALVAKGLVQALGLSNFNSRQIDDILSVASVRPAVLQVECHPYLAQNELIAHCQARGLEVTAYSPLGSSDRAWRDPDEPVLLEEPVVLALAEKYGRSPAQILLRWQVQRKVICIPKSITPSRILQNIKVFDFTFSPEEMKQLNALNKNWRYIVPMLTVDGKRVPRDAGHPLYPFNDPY
The experiment is described as follows: AKR1A1 inhibition, DL-glyceraldehyde reduction (NADPH decrease at 340 nm). The format is biochemical. Particulars: AKR1A1, Glyceraldehyde [3.6 mM]. The method, then:
The carbonyl-reducing enzymes AKR1A1, AKR1B1, AKR1B10 were prepared in an Escherichia coli expression system according to previously published methods: plasmids of AKR1A1 and AKR1B1 were friendly gifts from Prof. Dr. Vladimir Wsol and Dr. Nina Kassner; information about production and purification of AKR1B10 [19] has been published before (sequences of all obtained plasmids containing the specific inserts were verified by sequencing (MWG Eurofins)). The plasmids were then transformed in E. coli BL21 (DE3) cells. For overexpression of 6× His-tagged enzymes, a 400 mL culture (containing the appropriate antibiotic; plasmid dependent) was grown to optical density of 0.6 at 600 nm at 37 °C. […] Purification progress was monitored by SDS-PAGE of the obtained fractions (not shown). Enzyme concentrations were determined using a Qubit 2.0 fluorometric quantitation system (Life Technologies, Carlsbad, CA, USA) according to the manufacturer’s instructions.
as §4, §5

Another experiment has as its system cyclooxygenase-1. On the set-up: method as in PMID 10631313. Particulars: cited from earlier work.
For the next experiment, the target named is cyclooxygenase-2. Set-up: method as in PMID 10631313. Particulars: cited from earlier work.
The target of experiment [3] is AKR1B10. Set-up: method as in PMID 27665999. The following applies: cited from earlier work.
In experiment [4] the test system is AKR1B10. On the set-up: method as in PMID 23123477. Particulars: cited from earlier work.

For the compound `CC(C)=CCC1=C(O)C(O)(CC=C(C)C)C(=O)C(C(=O)C(C)C)=C1O` (stereo in doubt) [Compound 2, cohumulone], at AKR1B10 [1], the IC50 amounted to 1.35 ± 0.07 µM, the inhibition constant Ki was determined as 0.7 ± 0.09 µM, the “Ratio AKR1A1/AKR1B10” value is given as more than 74 and the “Ratio AKR1B1/AKR1B10” value is given as more than 93. The IC50 against AKR1B1 was more than 125 µM. Also, at AKR1B10 [2], the IC50 was 29.8 ± 1.72 µM, the affinity corresponds to a Ki of 16.5 ± 1.74 µM and the Mode of inhibition entry was “non-competitive”. Besides, the half-inhibitory concentration (IC50) against AKR1A1 is more than 100 µM.
`CCC(C)C(=O)C1=C(O)C(CC=C(C)C)=C(O)[C@](O)(CC=C(C)C)C1=O` (stereo partly drawn) [Compound 1, adhumulone]: on AKR1B10 [1], inhibition was half-maximal at 5.41 ± 0.42 µM (IC50), the Ki stood at 3.27 ± 0.52 µM, the “Ratio AKR1A1/AKR1B10” value is not below 19 and the “Ratio AKR1B1/AKR1B10” value was more than 23. For the same compound, the IC50 on AKR1B1 was more than 125 µM. On AKR1B10 [2], the IC50 came out at 29.3 ± 1.53 µM; the affinity, expressed as Ki, was 16.8 ± 1.33 µM; the Mode of inhibition entry is reported as “competitive”.
For the compound `CC(C)=CCC1C(=O)C(C(=O)CC(C)C)=C(O)C(O)(CC=C(C)C)C1=O` (stereo not drawn) [Compound 3, n-humulone], on AKR1B10 [1], the half-maximal inhibitory concentration (IC50) stood at 1.94 ± 0.1 µM, the inhibition constant Ki came out at 0.98 ± 0.12 µM, the “Ratio AKR1A1/AKR1B10” value is more than 52 and the “Ratio AKR1B1/AKR1B10” value was more than 64. Moreover, the “inhibition of cyclooxygenase-1” value in the experiment on cyclooxygenase-1 is “not inhibited at concentrations below 10 µM”. Also, the IC50 at AKR1B1 is more than 125 µM. Further, on AKR1B10 [2], 7.78 ± 0.43 µM corresponded to half-maximal inhibition (IC50), the Ki was found to be 3.94 ± 0.33 µM and the Mode of inhibition result is on record as “non-competitive”. Also, the IC50 on AKR1A1 is more than 100 µM. For the same compound, the IC50 on cyclooxygenase-2 is 1.6 µM.
`CCCCC/C=C\C/C=C\C/C=C\C/C=C\CCCC(=O)O` [arachidonic acid]: the Ki on AKR1B10 [3] was 0.26 µM.
For the compound `CC(C)=CCc1c(O)cc2oc3cc(O)c(O)c(CC=C(C)C)c3c(=O)c2c1O` [γ-mangostin], the IC50 in the experiment on AKR1B10 [4] was 0.018 µM.
